This note sets out measurements from US9321790B2, “Pyrimidinone derivatives as antimalarial agents” (SANOFI, priority 2012, dated 2016).

The target in one test is human PI3Kα (Homo sapiens (Human), UniProt P42336). The test is described as follows: Human PI3Kα activity test (luciferin/luciferase ATP consumption, KinaseGlo). The class given is biochemical. Particulars: PI3Kα (p110α/p85α), 50 μM PIP2, 2 μM ATP, 90 minutes; read-out: IC50 Human PI3Kα.
Test [1] relates to Plasmodium falciparum (strain NF54). The test is described as follows: Antimalarial activity test: growth of Plasmodium falciparum in infected human erythrocytes, 3H-hypoxanthine incorporation. The class given is cell-based. Particulars: strain NF54 sensitive to chloroquine, 72 h total incubation. The essentials: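 Chloroquine-sensitive NF54 parasites in human erythrocytes (1.25% hematocrit, 0.15% parasitemia) were grown in hypoxanthine-free RPMI 1640 with HEPES and Albumax II, with compound in twofold serial dilution, at 37 °C under 93% N2/4% CO2/3% O2. After 48 h, 3H-hypoxanthine (0.5 μCi) was added for 24 h. Scintillation counts versus drug-free control gave IC50.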

Setting [2] is: Plasmodium falciparum, Erythrocyte.

Chain of human PI3Kα (P42336 whole entry): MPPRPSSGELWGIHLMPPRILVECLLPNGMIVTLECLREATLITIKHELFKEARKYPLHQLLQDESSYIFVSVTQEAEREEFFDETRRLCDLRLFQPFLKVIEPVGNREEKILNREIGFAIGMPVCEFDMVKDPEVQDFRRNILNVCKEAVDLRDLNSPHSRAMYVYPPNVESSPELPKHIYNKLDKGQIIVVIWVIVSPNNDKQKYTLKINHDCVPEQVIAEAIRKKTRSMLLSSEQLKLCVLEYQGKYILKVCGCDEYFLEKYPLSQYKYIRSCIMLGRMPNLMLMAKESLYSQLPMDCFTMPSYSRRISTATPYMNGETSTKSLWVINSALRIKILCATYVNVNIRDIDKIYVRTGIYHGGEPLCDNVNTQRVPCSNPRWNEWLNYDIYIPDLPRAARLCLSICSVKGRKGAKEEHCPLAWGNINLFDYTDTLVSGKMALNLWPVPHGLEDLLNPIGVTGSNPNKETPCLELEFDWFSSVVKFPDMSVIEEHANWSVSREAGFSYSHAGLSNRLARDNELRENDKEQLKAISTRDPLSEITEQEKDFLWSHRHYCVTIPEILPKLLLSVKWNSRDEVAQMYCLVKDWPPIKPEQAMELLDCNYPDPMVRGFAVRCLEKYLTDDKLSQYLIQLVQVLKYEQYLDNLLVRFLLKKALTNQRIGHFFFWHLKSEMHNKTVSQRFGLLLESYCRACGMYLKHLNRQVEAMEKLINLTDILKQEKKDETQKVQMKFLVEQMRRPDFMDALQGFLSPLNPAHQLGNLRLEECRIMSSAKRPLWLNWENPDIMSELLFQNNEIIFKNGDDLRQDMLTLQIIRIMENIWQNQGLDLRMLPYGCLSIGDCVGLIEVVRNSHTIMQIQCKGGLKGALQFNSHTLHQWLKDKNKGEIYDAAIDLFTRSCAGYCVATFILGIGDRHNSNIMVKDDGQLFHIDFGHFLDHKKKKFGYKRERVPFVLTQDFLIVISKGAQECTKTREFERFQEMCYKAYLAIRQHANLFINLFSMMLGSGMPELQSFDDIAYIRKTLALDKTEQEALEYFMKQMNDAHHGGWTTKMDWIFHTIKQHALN
Chain of human PI3Kα (P27986 whole entry partner): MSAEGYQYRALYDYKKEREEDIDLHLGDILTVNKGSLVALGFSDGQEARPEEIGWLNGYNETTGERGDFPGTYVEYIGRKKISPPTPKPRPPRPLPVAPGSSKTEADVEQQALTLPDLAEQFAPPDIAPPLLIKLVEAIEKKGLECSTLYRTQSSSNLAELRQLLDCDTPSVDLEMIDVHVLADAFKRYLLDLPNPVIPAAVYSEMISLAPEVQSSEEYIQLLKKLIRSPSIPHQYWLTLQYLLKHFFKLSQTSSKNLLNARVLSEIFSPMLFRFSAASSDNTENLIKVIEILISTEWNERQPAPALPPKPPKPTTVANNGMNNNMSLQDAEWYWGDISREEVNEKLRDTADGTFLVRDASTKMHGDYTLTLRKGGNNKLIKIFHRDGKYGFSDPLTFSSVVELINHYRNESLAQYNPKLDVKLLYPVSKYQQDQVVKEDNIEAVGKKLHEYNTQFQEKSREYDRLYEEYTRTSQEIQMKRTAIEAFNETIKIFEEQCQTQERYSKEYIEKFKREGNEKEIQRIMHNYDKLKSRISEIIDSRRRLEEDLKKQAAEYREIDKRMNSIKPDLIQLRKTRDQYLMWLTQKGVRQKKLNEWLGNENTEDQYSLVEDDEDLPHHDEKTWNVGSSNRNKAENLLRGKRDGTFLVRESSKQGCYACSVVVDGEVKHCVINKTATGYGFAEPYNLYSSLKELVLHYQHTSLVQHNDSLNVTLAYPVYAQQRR
Procedure for human PI3Kα: The test uses a luciferin/luciferase system to measure the concentration of ATP and its consumption during the enzymatic reaction.
After 90 minutes, the reaction is quenched by adding 20 μl/well of KinaseGlo reagent (Promega V6713). After 10 minutes in the dark, the luminescence is read using a PHERAStar microplate reader (reading at 0.8 sec/well).

For `O=c1cc(N2C[C@@H]3C[C@H]2CO3)nc2n1CC[C@@H](C(F)(F)F)N2CC1(O)CCCC1` [Compound 101, (8S)-9-(1-Hydroxycyclopentylmethyl)-2-(1S,4S)-2-oxa-5-azabicyclo[2.2.1]hept-5-yl-8-trifluoromethyl-6,7,8,9-tetrahydropyrimido[1,2-a]pyrimidin-4-one], the IC50 was determined as 450 nM on human PI3Kα and 10 nM in test [1] (setting [2]).

With `O=c1cc(N2C[C@@H]3C[C@H]2CO3)nc2n1CC[C@@H](C(F)(F)F)N2CCC(O)(C1CC1)C1CC1` [Compound 102, (8S)-9-(3,3-Dicyclopropyl-3-hydroxypropyl)-2-(1S,4S)-2-oxa-5-azabicyclo[2.2.1]hept-5-yl-8-trifluoromethyl-6,7,8,9-tetrahydropyrimido[1,2-a]pyrimidin-4-one], the IC50 was determined as 2500 nM at human PI3Kα and 5 nM in test [1] (setting [2]).

On to `O=c1cc(N2C[C@@H]3C[C@H]2CO3)nc2n1CC[C@@H](C(F)(F)F)N2CC(O)(C1CC1)C1CC1` [Compound 103, (8S)-9-(2,2-Dicyclopropyl-2-hydroxyethyl)-2-(1S,4S)-2-oxa-5-azabicyclo[2.2.1]hept-5-yl-8-trifluoromethyl-6,7,8,9-tetrahydropyrimido[1,2-a]pyrimidin-4-one], for which the figures for the IC50 (at human PI3Kα; in test [1] (setting [2])) were 840 nM and 75 nM, respectively.

Turning to `O=c1cc(N2C[C@@H]3C[C@H]2CO3)nc2n1CC[C@@H](C(F)(F)F)N2CC1(O)CC1` [Compound 104, (8S)-9-(1-hydroxycyclopropylmethyl)-2-(1S,4S)-2-oxa-5-azabicyclo[2.2.1]hept-5-yl-8-trifluoromethyl-6,7,8,9-tetrahydropyrimido[1,2-a]pyrimidin-4-one], the IC50 at human PI3Kα came out at 930 nM; in test [1] (setting [2]), 12 nM.

As for `O=c1cc(N2C[C@@H]3C[C@H]2CO3)nc2n1CC[C@@H](C(F)(F)F)N2CCC1(O)CC1` [Compound 105, (8S)-9-[2-(1-Hydroxycyclopropyl)ethyl]-2-(1S,4S)-2-oxa-5-azabicyclo[2.2.1]hept-5-yl-8-trifluoromethyl-6,7,8,9-tetrahydropyrimido[1,2-a]pyrimidin-4-one], the IC50 was found to be 1900 nM on human PI3Kα and 24 nM in test [1] (setting [2]).

On to `O=c1cc(N2C[C@@H]3C[C@H]2CO3)nc2n1CC[C@@H](C(F)(F)F)N2Cc1cccc2ncccc12` [Compound 106, (8S)-2-(1S,4S)-2-oxa-5-azabicyclo[2.2.1]hept-5-yl-9-quinolin-5-ylmethyl-8-trifluoromethyl-6,7,8,9-tetrahydropyrimido[1,2-a]pyrimidin-4-one], for which the IC50 on human PI3Kα is above 10000 nM; in test [1] (setting [2]) it was 13 nM.

As to `Cc1nscc1C(=O)CN1c2nc(N3C[C@@H]4C[C@H]3CO4)cc(=O)n2CC[C@H]1C(F)(F)F` [Compound 107, (8S)-9-[2-(3-Methylisothiazol-4-yl)-2-oxoethyl]-2-(1S,4S)-2-oxa-5-azabicyclo[2.2.1]hept-5-yl-8-trifluoromethyl-6,7,8,9-tetrahydropyrimido[1,2-a]pyrimidin-4-one], the IC50 is above 10000 nM on human PI3Kα and 100 nM in test [1] (setting [2]).

On to `CS(=O)(=O)c1ccc(C(=O)CN2c3nc(N4C[C@@H]5C[C@H]4CO5)cc(=O)n3CC[C@H]2C(F)(F)F)cc1` [Compound 108, (8S)-9-[2-(4-Methanesulfonylphenyl)-2-oxoethyl]-2-(1S,4S)-2-oxa-5-azabicyclo[2.2.1]hept-5-yl-8-trifluoromethyl-6,7,8,9-tetrahydropyrimido[1,2-a]pyrimidin-4-one], for which the IC50 is above 10000 nM on human PI3Kα and 86 nM in test [1] (setting [2]).

Consider `O=c1cc(N2C[C@@H]3C[C@H]2CO3)nc2n1CC[C@@H](C(F)(F)F)N2Cc1cccc2cnccc12` [Compound 109, (8S)-9-Isoquinolin-5-ylmethyl-2-(1S,4S)-2-oxa-5-azabicyclo[2.2.1]hept-5-yl-8-trifluoromethyl-6,7,8,9-tetrahydropyrimido[1,2-a]pyrimidin-4-one], for which the IC50 at human PI3Kα was found to be 7800 nM; in test [1] (setting [2]) it was 79 nM.

Regarding `O=C(CN1c2nc(N3C[C@@H]4C[C@H]3CO4)cc(=O)n2CC[C@H]1C(F)(F)F)N1CCOCC1` [Compound 110, (8S)-9-(2-Morpholin-4-yl-2-oxoethyl)-2-(1S,4S)-2-oxa-5-azabicyclo[2.2.1]hept-5-yl-8-trifluoromethyl-6,7,8,9-tetrahydropyrimido[1,2-a]pyrimidin-4-one], the IC50 on human PI3Kα is above 10000 nM; in test [1] (setting [2]) it was 330 nM.

As for `O=c1cc(N2C[C@@H]3C[C@H]2CO3)nc2n1CC[C@@H](C(F)(F)F)N2CCc1ccc(OCCN2CCOCC2)cc1` [Compound 111, (8S)-9-{2-[4-(2-Morpholin-4-ylethoxy)phenyl]ethyl}-2-(1S,4S)-2-oxa-5-azabicyclo[2.2.1]hept-5-yl-8-trifluoromethyl-6,7,8,9-tetrahydropyrimido[1,2-a]pyrimidin-4-one], the IC50 on human PI3Kα turned out to be 330 nM; in test [1] (setting [2]), 5 nM.

Turning to `CON(C)C(=O)CN1c2nc(N3C[C@@H]4C[C@H]3CO4)cc(=O)n2CC[C@H]1C(F)(F)F` [Compound 112, N-Methoxy-N-methyl-2-((S)-8-(1S,4S)-2-oxa-5-azabicyclo[2.2.1]hept-5-yl-6-oxo-2-trifluoromethyl-3,4-dihydro-2H,6H-pyrimido[1,2-a]pyrimidin-1-yl)acetamide], the IC50 at human PI3Kα was above 10000 nM; in test [1], 200 nM.

`O=C(CN1c2nc(N3C[C@@H]4C[C@H]3CO4)cc(=O)n2CC[C@H]1C(F)(F)F)c1ccc2nccn2c1` [Compound 113, (8S)-9-(2-Imidazo[1,2-a]pyrid-6-yl-2-oxoethyl)-2-(1S,4S)-2-oxa-5-azabicyclo[2.2.1]hept-5-yl-8-trifluoromethyl-6,7,8,9-tetrahydropyrimido[1,2-a]pyrimidin-4-one]: the half-inhibitory concentration (IC50) on human PI3Kα is above 10000 nM; in test [1] (setting [2]), 430 nM.

In the case of `O=C(CN1c2nc(N3C[C@@H]4C[C@H]3CO4)cc(=O)n2CC[C@H]1C(F)(F)F)c1ccc(OC(F)F)nc1` [Compound 114, (S)-9-[2-(6-difluoromethoxypyrid-3-yl)-2-oxoethyl]-2-(1S,4S)-2-oxa-5-azabicyclo[2.2.1]hept-5-yl-8-trifluoromethyl-6,7,8,9-tetrahydropyrimido[1,2-a]pyrimidin-4-one], the IC50 at human PI3Kα is above 10000 nM; in test [1] (setting [2]), 245 nM.

For `O=C(COc1ccc(CCN2c3nc(N4C[C@@H]5C[C@H]4CO5)cc(=O)n3CC[C@H]2C(F)(F)F)cc1)N1CCOCC1` [Compound 115, (S)-9-{2-[4-(2-Morpholin-4-yl-2-oxoethoxy)phenyl]ethyl}-2-(1S,4S)-2-oxa-5-azabicyclo[2.2.1]hept-5-yl-8-trifluoromethyl-6,7,8,9-tetrahydropyrimido[1,2-a]pyrimidin-4-one], the IC50 on human PI3Kα amounted to 590 nM; in test [1] (setting [2]) it was 3 nM.

For the compound `Cn1cc(CN2c3nc(N4C[C@@H]5C[C@H]4CO5)cc(=O)n3CC[C@H]2C(F)(F)F)c(C(F)(F)F)n1` [Compound 116, (8S)-9-(1-Methyl-3-trifluoromethyl-1H-pyrazol-4-ylmethyl)-2-(1S,4S)-2-oxa-5-azabicyclo[2.2.1]hept-5-yl-8-trifluoromethyl-6,7,8,9-tetrahydropyrimido[1,2-a]pyrimidin-4-one], the figures for the IC50 (at human PI3Kα; in test [1] (setting [2])) were above 10000 nM and 117 nM, respectively.

With `CN(C)CCOc1ccc(CCN2c3nc(N4C[C@@H]5C[C@H]4CO5)cc(=O)n3CC[C@H]2C(F)(F)F)cc1` [Compound 117, (8S)-9-{2-[4-(2-Dimethylaminoethoxyl)phenyl]ethyl}-2-(1S,4S)-2-oxa-5-azabicyclo[2.2.1]hept-5-yl-8-trifluoromethyl-6,7,8,9-tetrahydropyrimido[1,2-a]pyrimidin-4-one], the IC50 at human PI3Kα is 380 nM; in test [1] (setting [2]), 6 nM.

Regarding `O=CN1CCC(C(=O)CN2c3nc(N4C[C@@H]5C[C@H]4CO5)cc(=O)n3CC[C@H]2C(F)(F)F)CC1` [Compound 118, 4-[2-((S)-8-(1S,4S)-2-Oxa-5-azabicyclo[2.2.1]hept-5-yl-6-oxo-2-trifluoromethyl-3,4-dihydro-2H,6H-pyrimido[1,2-a]pyrimidin-1-yl)acetyl]piperidine-1-carbaldehyde], the IC50 is above 10000 nM on human PI3Kα and 15 nM in test [1].

Consider `CC(=O)N1CCC(C(=O)CN2c3nc(N4C[C@@H]5C[C@H]4CO5)cc(=O)n3CC[C@H]2C(F)(F)F)CC1` [Compound 119, (8S)-9-[2-(1-Acetylpiperid-4-yl)-2-oxoethyl]-2-(1S,4S)-2-oxa-5-azabicyclo[2.2.1]hept-5-yl-8-trifluoromethyl-6,7,8,9-tetrahydropyrimido[1,2-a]pyrimidin-4-one], for which the values for the IC50 (at human PI3Kα; in test [1] (setting [2])) were above 10000 nM and 30 nM, respectively.
